T1: membrane-bound PR3 (Homo sapiens, UniProt P24158)
T1 construct: endogenous in cells; host or cells: human peripheral-blood neutrophils (whole-cell suspension)
T1 sequence (P24158 28-248): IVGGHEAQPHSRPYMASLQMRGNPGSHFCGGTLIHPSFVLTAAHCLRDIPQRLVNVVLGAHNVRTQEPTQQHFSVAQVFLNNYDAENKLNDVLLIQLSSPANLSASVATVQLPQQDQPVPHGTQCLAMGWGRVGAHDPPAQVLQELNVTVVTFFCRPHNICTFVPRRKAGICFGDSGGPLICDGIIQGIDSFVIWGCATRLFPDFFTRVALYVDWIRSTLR

B1: rhPR3: recombinant human active PR3 (protein, UniProt P24158 28-248, looked up)
Myeloblastin: IVGGHEAQPHSRPYMASLQMRGNPGSHFCGGTLIHPSFVLTAAHCLRDIPQRLVNVVLGAHNVRTQEPTQQHFSVAQVFLNNYDAENKLNDVLLIQLSSPANLSASVATVQLPQQDQPVPHGTQCLAMGWGRVGAHDPPAQVLQELNVTVVTFFCRPHNICTFVPRRKAGICFGDSGGPLICDGIIQGIDSFVIWGCATRLFPDFFTRVALYVDWIRSTLR

Assays:
Type in all cases: cell-based
membrane-bound PR3 = target: T1, membrane-bound PR3; experiment: Membrane-bound PR3 activity of neutrophils cultured with CM of SCP28 cells overexpressing CTSC; conditions: Sivelestat 10 μM, Alvelestat 10 μM, CTSGi 20 μM, FIG. 7D
Description: The procedure of enzyme activity assays were conducted as previously reported (Korkmaz et aL, “Neutrophil proteinase 3 and dipeptidyl peptidase I (cathepsin C) as pharmacological targets in granulomatosis with polyangiitis (Wegener granulomatosis),” Semin. Immunopathol. 35:411-421 (2008)). The PR3 or NE enzymatic activity was quantified by detecting the rate of hydrolysis of the PR3-specific substrate (Abz)-VADnorVADRQ-(EDDnp) or NE specific substrate (Abz)-APEEIMRRQ-(EDDnp) by cell suspension or free enzymes. To analyze membrane-bound PR3 activity, neutrophils were cultured in cancer cell CM or non-conditioned medium, and treated with DMSO or various inhibitors, including Sivelestat (10 μM), Alvelestat (10 μM) and CTSGi (20 μM) for 30-45 min at 37° C. Then, cells were suspended in activity buffer (5×10^6 per ml, PBS, 4 mM EGTA, pH 7.4) with 15 μM of the PR3-specific substrate, and the kinetic of hydrolysis was followed by measuring the fluorescence at λex=320 nm and λem=420 nm. For activation of PR3 in isolated plasma membrane fraction, recombinant human CTSC (1071-CY, R&D) was activated according to the manufacturer's instruction. […] The activity of free PR3 and NE were measured in the assay buffer (50 mM Tris, 750 mM NaCl, pH 7.4) with 15 μM specific substrates by recording the fluorescence at λex=320 nm and λem=420 nm. […]

IL-1β = IL-1β secretion of neutrophils pre-treated with CM of SCP28 cancer cells (ELISA); conditions: human neutrophils pre-treated with CM of SCP28 with CTSC overexpressed; FIG. 7H
Description: ELISA kits were used to assay the levels of human IL-1β (88-7621-88, ThermoFisher), mouse IL-1β (432604, Biolegend), mouse IL6 (88-7064-88, ThermoFisher), mouse CCL3 (88-56013-88, ThermoFisher) in cell culture supernatants or sera according to the manufacturer's instruction. Briefly, 96-well MaxiSorp™ ELISA Plates (44-2404, ThermoFisher) was coated with capture antibody overnight at 4° C. in coating buffer (15 mM of Na2CO3, 35 mM of NaHCO3, at pH 9.6). After three washes in PBS, the wells were blocked with 5% BSA in PBS for 45 min at room temperature. Then, 100 μl of cell culture supernatants or sera and standard samples were added into the wells and incubated for 2 h at room temperature, and the plates were washed three times with washing buffer (1% BSA, 0.05% Tween-20 in PBS). Next, biotin-conjugated detection antibody in 2.5% BSA was added into the wells and incubated for 2 h at room temperature. After three washes with washing buffer, HRP-streptavidin was incubated for 45 min at room temperature. Then, signals were detected using TMB solution and read at 450 nm.

murine neutrophils = experiment: Reactive oxygen species (ROS) analysis of neutrophils pre-treated with 4T07 conditioned medium; conditions: 4T07 CM with CTSC overexpressed, inhibitors 10 μM, FIGS. 8C, 8E
Description: To measure the ROS levels, neutrophils were cultured in cancer cell CM or non-conditioned medium, and treated with DMSO or various inhibitors, including Sivelestat (10 μM), BAY11-7082 (10 μM) and SB203580 (10 μM) for 1 h at 37° C. Cells were then harvested and resuspended in assay buffer (PBS, 4 mM EGTA, pH 7.4, containing 10 μM CM-H2DCFDA, Invitrogen), incubated for 15 min at 37° C. in dark, washed with pre-chilled PBS, followed by FACS analysis within 30 min.
The release of reactive oxygen species (ROS) by neutrophils is known to induce NET formation. […] Commum. 6, 6673 (2015).
ROS analysis of murine neutrophils pre-treated with 4T07 conditioned medium show increased ROS production results from CTSC overexpression (FIG. 8E).

4T07 cancer cells = experiment: Three-dimensional spheroid culture of 4T07 cells in neutrophil medium; conditions: rmTSP-1 alone, FIG. 8H
Description: The procedure of 3D spheroids culture assay was previously reported (Taylor et al., “Lysyl oxidase contributes to mechanotransduction-mediated regulation of transforming growth factor-beta signaling in breast cancer cells,” Neoplasia 13:406-418 (2011)). Briefly, 4T07 cells (200 per well) were cultured in 48-well plates on 100% growth-factor-reduced Matrigel (356231, BD) cushions in spheroid medium (a 1:1 mixture of 1% FBS DMEM and medium from neutrophils cultured in the cancer cell CM, 50% Matrigel supplemented with 50 μg/ml mTSP-1 (7859-TH-050). Upon completed gelation, 250 μl of culture medium (a 1:1 mixture of 1% FBS DMEM and medium from neutrophils cultured in the cancer cell CM) with 10 μg/ml mTSP-1 (7859-TH-050) was added to each well and the culture medium was changed every three days. On day 7-10, the numbers of the spheroids were analyzed.
When both rmTSP-1 and an IL6-blocking antibody are added to CTSC overexpressing 4T07 conditioned medium, spheroid growth is inhibited (FIG. 8I, left panel). […] The inhibitory effects of α-IL6, DNase I, and a combination thereof, on spheroid formation can be seen in the images provided in FIG. 8I.

p38 = p38 phosphorylation in neutrophils pre-treated with 4T1 conditioned medium and/or rhPR3; conditions: murine neutrophils pre-treated with 4T1 CM and/or rhPR3, regardless of CTSC knockdown; FIG. 8D
Description: Cultured cells were collected by scraper or trypsinized and then lysed with lysis buffer (50 mM Tris-HCl, 150 mM NaCl, 1% NP-40 detergent, 0.5% sodium deoxycholate, 0.1% SDS with phosphatase and protease inhibitors), and dispersed tissue were homogenized in RIPA buffer on ice for 15 min, followed by centrifugation at 17,000 g for 15 min. The protein concentration was measured with a BCA Protein Assay Kit. Proteins of […] were loaded for membrane proteins, IL-1β processing, p65 phosphorylation and the other assays, respectively, and separated on 8-12% SDS-polyacrylamide gel. For cancer cell conditioned medium (CM) collection, cells were grown to ~80% confluence in 10 cm culture dishes. After three times washing with serum-free medium at 37° C., the cells were incubated in serum-free medium at 37° C. for 24 h. The CM were collected, centrifuged at 2,000 g for 10 min, filtrated by 0.22 μm filters, stored at −80° C. until used. The secreted proteins in CM were collected by TCA precipitation. Briefly, 25% v/v TCA was added into 1 ml CM with phosphatase and protease inhibitors, incubated overnight at 4° C., and then centrifuged at 20,000 g for 60 min, after which the supernatant was discarded and the pellet was washed twice with 1 ml pre-chilled acetone, centrifuged again at 20,000 g for 5 min at 4° C. […]

Molecule | IL-1β levels (secretion) of neutrophils (IL-1β) | ROS production / ROS levels (murine neutrophils) | other results
Cc1c(-c2ccnn2C)cc(C(=O)NCc2ccc(S(C)(=O)=O)cn2)c(=O)n1-c1cccc(C(F)(F)F)c1 [Alvelestat] | only PR3 inhibitor Silvelestat reduces | – | upregulated PR3 activity resulting from CTSC overexpression (membrane-bound PR3): no effect
Cc1ccc(S(=O)(=O)/C=C/C#N)cc1 [BAY 11-7082] | does not reduce | no effect | –
C[S+]([O-])c1ccc(-c2nc(-c3ccncc3)c(-c3ccc(F)cc3)[nH]2)cc1 (centres unmarked) [SB203580] | – | significantly reduces | –
rmTSP-1: recombinant murine TSP-1, a metastasis-suppressive ECM protein | – | – | spheroid growth of 4T07 cancer cells (4T07 cancer cells; CTSC overexpressing 4T07 conditioned medium): does not block; spheroid growth of 4T07 cancer cells (4T07 cancer cells; neutrophil medium pre-treated with PMA): unable to block
B1 | – | – | p38 phosphorylation (p38): increased
